Experimental data as given in PubChem BioAssay AID1963964 (Molecular Pharmacology Branch, DTP, NCI, 2024).

Test system: 997726-040-R-J2-PDC tumor spheroids, viability
Test: Anticancer human tumor 997726-040-R-J2-PDC patient-derived squamous cell lung carcinoma cell line growth inhibition [PI3K]
Conditions: spheroids with HUVEC and MSC; for IC50: curve of first compound; for viability, T/C: stronger effect = lower value; active = viability on the fitted dose curve at most 10% of control; inactive = the rest
Method in brief: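 Stroma-containing spheroids: tumor line, pooled-donor HUVEC, hMSC. Treatments: targeted agents with PI3K inhibitors. Dosing: clinically relevant, half-log spacing, 10 microM ceiling without known Cmax. Read-out: cell viability.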

[1] = second compound 0.00316 µM, first compound 0.0316 µM
[2] = second compound 0.00316 µM, first compound 0.1 µM
[3] = second compound 0.01 µM, first compound 0.0316 µM
[4] = second compound 0.01 µM, first compound 0.1 µM
[5] = second compound 0.0316 µM, first compound 0.0316 µM
[6] = second compound 0.0316 µM, first compound 0.1 µM
[7] = second compound 0.1 µM, first compound 0.0316 µM
[8] = second compound 0.1 µM, first compound 0.1 µM
[9] = second compound 0.316 µM, first compound 0.0316 µM
[10] = second compound 0.316 µM, first compound 0.1 µM
[11] = second compound 1 µM, first compound 0.0316 µM
[12] = second compound 1 µM, first compound 0.1 µM
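Note: spheroids exposed to compounds for seven days before readout.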

CC(C)n1nc(-c2ccc3oc(N)nc3c2)c2c(N)ncnc21 + COc1c(OCCCN2CCOCC2)ccc2c3n(c(=NC(=O)c4cnc(N)nc4)nc12)CCN3
0.00297 µM: IC50 (second compound 0.01 µM)
inactive: viability, T/C (second compound 0.00316 µM, first compound 0.000316 µM) 74% | viability, T/C (second compound 0.00316 µM, first compound 0.001 µM) 76.6% | viability, T/C (second compound 0.00316 µM, first compound 0.00316 µM) 70% | viability, T/C (second compound 0.00316 µM, first compound 0.01 µM) 61.1% | viability, T/C [1] 39.9% | viability, T/C [2] 16.4% | viability, T/C (second compound 0.01 µM, first compound 0.000316 µM) 57.2% | viability, T/C (second compound 0.01 µM, first compound 0.001 µM) 57.9% | viability, T/C (second compound 0.01 µM, first compound 0.00316 µM) 45.5% | viability, T/C (second compound 0.01 µM, first compound 0.01 µM) 42.2% | viability, T/C [3] 33.2% | viability, T/C [4] 13.1% | viability, T/C (second compound 0.0316 µM, first compound 0.000316 µM) 32.4% | viability, T/C (second compound 0.0316 µM, first compound 0.001 µM) 35.5% | viability, T/C (second compound 0.0316 µM, first compound 0.00316 µM) 32.5% | viability, T/C (second compound 0.0316 µM, first compound 0.01 µM) 29.6% | viability, T/C [5] 23.7% | viability, T/C [6] 5.54% | viability, T/C (second compound 0.1 µM, first compound 0.000316 µM) 25.5% | viability, T/C (second compound 0.1 µM, first compound 0.001 µM) 22.1% | viability, T/C (second compound 0.1 µM, first compound 0.00316 µM) 21.3% | viability, T/C (second compound 0.1 µM, first compound 0.01 µM) 16.3%
0.0182 µM: IC50 (second compound 0.00316 µM)
active: viability, T/C [7] 9.54% | viability, T/C [8] 2.12% | viability, T/C (second compound 0.316 µM, first compound 0.000316 µM) 5.5% | viability, T/C (second compound 0.316 µM, first compound 0.001 µM) 4.4% | viability, T/C (second compound 0.316 µM, first compound 0.00316 µM) 4.05% | viability, T/C (second compound 0.316 µM, first compound 0.01 µM) 2.91% | viability, T/C [9] 1.89% | viability, T/C [10] 1.02% | viability, T/C (second compound 1 µM, first compound 0.000316 µM) 1.83% | viability, T/C (second compound 1 µM, first compound 0.001 µM) 1.51% | viability, T/C (second compound 1 µM, first compound 0.00316 µM) 1.18% | viability, T/C (second compound 1 µM, first compound 0.01 µM) 1.56% | viability, T/C [11] 1.91% | viability, T/C [12] 0.84%
< 0.000316 µM: IC50 (second compound 0.0316 µM) | IC50 (second compound 0.1 µM) | IC50 (second compound 0.316 µM) | IC50 (second compound 1 µM)

CCCS(=O)(=O)Nc1ccc(F)c(C(=O)c2c[nH]c3ncc(-c4ccc(Cl)cc4)cc23)c1F + COc1c(OCCCN2CCOCC2)ccc2c3n(c(=NC(=O)c4cnc(N)nc4)nc12)CCN3
6.61 µM: IC50 (second compound 0.00316 µM)
inactive: viability, T/C [1] 68.1% | viability, T/C [2] 91.1% | viability, T/C (second compound 0.00316 µM, first compound 0.316 µM) 101% | viability, T/C (second compound 0.00316 µM, first compound 1 µM) 114% | viability, T/C (second compound 0.00316 µM, first compound 3.16 µM) 136% | viability, T/C (second compound 0.00316 µM, first compound 10 µM) 20.7% | viability, T/C [3] 52.6% | viability, T/C [4] 70.3% | viability, T/C (second compound 0.01 µM, first compound 0.316 µM) 69.6% | viability, T/C (second compound 0.01 µM, first compound 1 µM) 76% | viability, T/C (second compound 0.01 µM, first compound 3.16 µM) 94% | viability, T/C (second compound 0.01 µM, first compound 10 µM) 23.2% | viability, T/C [5] 39.5% | viability, T/C [6] 41.8% | viability, T/C (second compound 0.0316 µM, first compound 0.316 µM) 44.2% | viability, T/C (second compound 0.0316 µM, first compound 1 µM) 49.9% | viability, T/C (second compound 0.0316 µM, first compound 3.16 µM) 57.1% | viability, T/C (second compound 0.0316 µM, first compound 10 µM) 19.6% | viability, T/C [7] 24% | viability, T/C [8] 24.6% | viability, T/C (second compound 0.1 µM, first compound 0.316 µM) 25.3% | viability, T/C (second compound 0.1 µM, first compound 1 µM) 28.4% | viability, T/C (second compound 0.1 µM, first compound 3.16 µM) 28% | viability, T/C (second compound 0.1 µM, first compound 10 µM) 16.5%
active: viability, T/C [9] 5.93% | viability, T/C [10] 6.12% | viability, T/C (second compound 0.316 µM, first compound 0.316 µM) 5.74% | viability, T/C (second compound 0.316 µM, first compound 1 µM) 7.01% | viability, T/C (second compound 0.316 µM, first compound 3.16 µM) 8.12% | viability, T/C (second compound 0.316 µM, first compound 10 µM) 7.64% | viability, T/C [11] 1.54% | viability, T/C [12] 1.08% | viability, T/C (second compound 1 µM, first compound 0.316 µM) 1.77% | viability, T/C (second compound 1 µM, first compound 1 µM) 1.68% | viability, T/C (second compound 1 µM, first compound 3.16 µM) 2.43% | viability, T/C (second compound 1 µM, first compound 10 µM) 1.82%
< 0.0316 µM: IC50 (second compound 0.1 µM) | IC50 (second compound 0.316 µM) | IC50 (second compound 1 µM)
5.36 µM: IC50 (second compound 0.01 µM)
0.0316 µM: IC50 (second compound 0.0316 µM)
